# According to US11452682B2, “Toothpaste composition for alleviating dentin hyperesthesia” (HYSENSBIO, priority 2018, dated 2022):
# Tested on: DSPP gene
# Assay: mRNA level of DSPP gene in MDPC-23 cells by RT-PCR and real-time PCR
# Assay type: cell-based, mouse
# Conditions: cultured 48 hours with peptide, relative ratio to mRNA level in untreated control, Gapdh internal control, repeated three times
# Protocol: The MDPC-23 cells cultured in Example 2-1 were treated with the peptides of each group synthesized in Example 1, then cultured for 48 hours. The mRNA level of the DSPP, an odontoblast differentiation marker gene, expressed in the MDPC-23 cells were measured, and the measured mRNA level of each DSPP gene was converted into a relative ratio to the mRNA level of the DSPP gene measured in control (Tables 13 to 24). In addition, the average value of the mRNA level of the DSPP gene measured according to the peptides of each group was compared (FIG. 1B). At this time, as a control, MDPC-23 cells that were not treated with the peptide promoting differentiation of odontoblast were used.
# The expression level of the DSPP gene was measured through RT-PCR and real-time PCR analysis: Specifically, total RNA was extracted from the MDPC-23 cells using TRIzol reagent. 2 μg of the total RNA, 1 μl of reverse transcriptase, and 0.5 μg of oligo (oligo; dT) were used to synthesize cDNA. The synthesized cDNA was used in a real-time polymerase chain reaction. The real-time polymerase chain reaction was performed on an ABI PRISM 7500 sequence detection system (Applied Biosystems) and an SYBR GREEN PCR Master Mix (Takara, Japan). The real-time polymerase chain reaction was performed under conditions of 94° C., 1 min; 95° C., 15 sec; 60° C., 34 sec for 40 cycles. Results were analyzed by a comparative cycle threshold (CT) method. At this time, the Gapdh gene was used as the internal control group, and the measured value was repeated three times. The mean value and standard deviation value thereof were used.
row,Substance,mRNA level of Dspp gene Mean
1,80 (KYKQKRRSKY; Novel peptide) [compound 80],1.837
2,81 (KYKQRKKNYK; Novel peptide) [compound 81],3.092
3,82 (KYKQRKRNYK; Novel peptide) [compound 82],3.361
4,83 (KYKQRRKNYK; Novel peptide) [compound 83],3.572
5,84 (KYKQRRRNYK; Novel peptide) [compound 84],3.702
6,85 (KYKQKKKNYK; Novel peptide) [compound 85],3.67
7,86 (KYKQKRKNYK; Novel peptide) [compound 86],3.705
8,87 (KYKQKKRNYK; Novel peptide) [compound 87],3.888
9,88 (KYKQKRRNYK; Novel peptide) [compound 88],4.021
10,89 (KYKQRKKSYK; Novel peptide) [compound 89],4.211
11,90 (KYKQRKRSYK; Novel peptide) [compound 90],4.811
12,91 (KYKQRRKSYK; Novel peptide) [compound 91],4.362
13,92 (KYKQRRRSYK; Novel peptide) [compound 92],4.211
14,93 (KYKQKKKSYK; Novel peptide) [compound 93],4.525
15,94 (KYKQKRKSYK; Novel peptide) [compound 94],3.836
16,95 (KYKQKKRSYK; Novel peptide) [compound 95],4.62
17,96 (KYKQKRRSYK; Novel peptide) [compound 96],5.211
